Results published in ChEMBL document CHEMBL1201862, “PubChem BioAssay data set” (2004).
Active and inactive are the calls of the source.

Assays:
[1] = HEK-293T cell viability reduction – luminescence, B-cell screen hits, cytotoxicity control for BCR NF-kB inhibitor project, dose response (AID 489021); type: functional, cell-based;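 note: HEK-293T cells carrying an NF-kB luciferase reporter; cells exposed to compound for about 14 hours before viability readout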
[2] = test system: INS1; experiment: INS-1E survival protection against cytokine death – cell-based, luminescence, retest, dose response (AID 449756); type: functional; conditions: Rattus norvegicus;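 note: cell death triggered by IL-1 beta plus TNF-alpha plus IFN-gamma mixture; protective hits raise ATP signal compared with cytokine alone wells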
[3] = target: G-protein coupled receptor 55 (Homo sapiens, UniProt Q9Y2T6); experiment: selective activators of receptor GPR55 – imaging, U2OS cells, beta-arrestin-GFP redistribution, primary screen (AID 1961); type: functional
Chain of G-protein coupled receptor 55 (Q9Y2T6 whole entry): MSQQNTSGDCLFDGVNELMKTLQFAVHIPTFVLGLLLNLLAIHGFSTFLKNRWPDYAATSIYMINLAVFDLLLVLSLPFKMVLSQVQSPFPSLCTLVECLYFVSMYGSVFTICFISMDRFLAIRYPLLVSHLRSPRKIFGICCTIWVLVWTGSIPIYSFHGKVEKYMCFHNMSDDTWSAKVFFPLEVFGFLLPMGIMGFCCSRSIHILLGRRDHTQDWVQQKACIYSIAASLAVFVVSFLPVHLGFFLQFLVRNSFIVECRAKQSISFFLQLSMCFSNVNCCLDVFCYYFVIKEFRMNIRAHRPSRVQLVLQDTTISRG

[4] = target: T1, High affinity choline transporter 1 (Homo sapiens, UniProt Q9GZV3); experiment: human choline transporter blockers, potency – cell-based, 5-point CRC, membrane potential dye, dose response (AID 504840); type: functional
T1 sequence (Q9GZV3 whole entry): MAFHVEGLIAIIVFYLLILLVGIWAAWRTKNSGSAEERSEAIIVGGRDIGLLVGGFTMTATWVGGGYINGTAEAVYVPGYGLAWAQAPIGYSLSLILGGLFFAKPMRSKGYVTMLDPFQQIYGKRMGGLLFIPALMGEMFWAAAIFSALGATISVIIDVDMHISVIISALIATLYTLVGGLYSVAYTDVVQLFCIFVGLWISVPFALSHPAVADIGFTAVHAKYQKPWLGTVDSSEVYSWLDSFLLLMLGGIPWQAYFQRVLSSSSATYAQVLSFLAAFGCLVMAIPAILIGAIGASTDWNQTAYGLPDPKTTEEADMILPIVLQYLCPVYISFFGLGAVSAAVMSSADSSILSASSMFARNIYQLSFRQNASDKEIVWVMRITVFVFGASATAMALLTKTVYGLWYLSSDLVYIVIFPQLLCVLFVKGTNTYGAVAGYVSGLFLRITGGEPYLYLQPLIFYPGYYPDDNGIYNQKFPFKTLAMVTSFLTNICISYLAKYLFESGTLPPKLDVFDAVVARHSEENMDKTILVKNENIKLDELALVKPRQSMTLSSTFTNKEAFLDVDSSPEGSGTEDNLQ

[5] = NIH3T3 cell viability loss – ATP luminescence, mouse fibroblasts, counter-screen, dose response (AID 2010); type: functional, cell-based;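 note: cells exposed to compound for about 90 hours before reading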
[6] = Trypanosoma cruzi growth suppression in host cells – NIH3T3 host cells, beta-gal luminescence, confirmation (AID 2044); type: functional, cell-based;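 note: intracellular parasites grown in NIH/3T3 mouse fibroblasts as host cells; luminescent beta-galactosidase reporter signal from transgenic T. cruzi replicating inside host cells; inhibitors lower the luminescence signal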
[7] = target: Phospholipase A2 (Homo sapiens, UniProt P04054); type: functional;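 note: confirmatory dose-response counterscreen on phospholipase A2, testing hits that came from an ultra-high-throughput screen for ATG4B inhibitors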
Chain of Phospholipase A2 (P04054 whole entry): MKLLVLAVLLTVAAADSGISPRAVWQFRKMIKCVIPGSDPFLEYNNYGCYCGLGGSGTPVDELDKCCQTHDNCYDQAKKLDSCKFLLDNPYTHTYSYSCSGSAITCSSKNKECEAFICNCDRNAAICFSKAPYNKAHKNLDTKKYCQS

[8] = target: T2, Cysteine protease ATG4B (Homo sapiens, UniProt Q9Y4P1); type: functional;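 note: Fluorescence-based dose-response confirmation assay measuring inhibition of ATG4B activity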
T2 sequence (Q9Y4P1 whole entry): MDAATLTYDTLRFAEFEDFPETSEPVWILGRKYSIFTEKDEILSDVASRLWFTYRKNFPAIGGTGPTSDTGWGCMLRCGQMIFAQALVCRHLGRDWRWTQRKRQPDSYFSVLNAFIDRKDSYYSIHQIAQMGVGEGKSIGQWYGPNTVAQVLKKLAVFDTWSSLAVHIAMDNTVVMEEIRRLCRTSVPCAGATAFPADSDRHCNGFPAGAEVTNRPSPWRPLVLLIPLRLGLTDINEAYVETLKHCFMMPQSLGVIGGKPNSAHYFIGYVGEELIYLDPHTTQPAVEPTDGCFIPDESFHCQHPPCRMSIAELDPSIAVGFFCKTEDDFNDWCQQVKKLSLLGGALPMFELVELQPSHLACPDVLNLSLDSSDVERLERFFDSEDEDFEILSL

[9] = target: T3, Aminopeptidase N (Plasmodium falciparum FcB1/Columbia, UniProt O96935); experiment: malaria alanyl aminopeptidase activity blockers – biochemical, fluorogenic H-Leu-NHMec substrate, 1536-well (AID 1445); set-up: species or system Plasmodium falciparum 3D7, 3D7
T3 sequence (O96935 whole entry): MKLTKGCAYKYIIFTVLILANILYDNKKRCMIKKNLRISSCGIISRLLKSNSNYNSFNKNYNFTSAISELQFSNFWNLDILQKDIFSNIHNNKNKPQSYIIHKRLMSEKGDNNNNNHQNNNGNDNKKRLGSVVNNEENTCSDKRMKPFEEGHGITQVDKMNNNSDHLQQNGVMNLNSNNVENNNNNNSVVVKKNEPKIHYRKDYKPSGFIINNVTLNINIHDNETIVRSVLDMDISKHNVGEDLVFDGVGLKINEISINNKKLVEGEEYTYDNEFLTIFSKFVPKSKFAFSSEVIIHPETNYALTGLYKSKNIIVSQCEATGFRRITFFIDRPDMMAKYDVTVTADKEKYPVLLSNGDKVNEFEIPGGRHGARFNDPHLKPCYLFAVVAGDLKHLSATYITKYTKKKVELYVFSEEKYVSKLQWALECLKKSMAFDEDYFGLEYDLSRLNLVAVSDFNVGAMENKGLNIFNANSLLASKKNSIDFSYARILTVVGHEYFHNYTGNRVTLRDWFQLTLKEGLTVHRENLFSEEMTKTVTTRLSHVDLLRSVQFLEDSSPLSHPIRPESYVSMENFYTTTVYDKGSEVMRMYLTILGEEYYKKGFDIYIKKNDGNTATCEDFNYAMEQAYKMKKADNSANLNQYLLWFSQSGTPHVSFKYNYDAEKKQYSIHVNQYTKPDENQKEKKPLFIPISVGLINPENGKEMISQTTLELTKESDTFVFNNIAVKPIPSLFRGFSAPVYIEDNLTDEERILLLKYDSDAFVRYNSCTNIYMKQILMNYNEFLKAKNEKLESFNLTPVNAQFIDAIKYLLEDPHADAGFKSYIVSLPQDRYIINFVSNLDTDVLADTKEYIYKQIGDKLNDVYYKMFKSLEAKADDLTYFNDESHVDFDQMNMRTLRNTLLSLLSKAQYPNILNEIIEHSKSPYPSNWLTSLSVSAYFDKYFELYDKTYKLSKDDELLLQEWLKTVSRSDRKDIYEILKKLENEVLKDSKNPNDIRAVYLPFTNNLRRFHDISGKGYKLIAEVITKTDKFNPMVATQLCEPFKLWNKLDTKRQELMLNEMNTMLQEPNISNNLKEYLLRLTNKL

[10] = target: Cytochrome P450 2D6 (Homo sapiens, UniProt P10635);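 note: CYP2D6 member of a cytochrome P450 panel assay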
Chain of Cytochrome P450 2D6 (P10635 whole entry): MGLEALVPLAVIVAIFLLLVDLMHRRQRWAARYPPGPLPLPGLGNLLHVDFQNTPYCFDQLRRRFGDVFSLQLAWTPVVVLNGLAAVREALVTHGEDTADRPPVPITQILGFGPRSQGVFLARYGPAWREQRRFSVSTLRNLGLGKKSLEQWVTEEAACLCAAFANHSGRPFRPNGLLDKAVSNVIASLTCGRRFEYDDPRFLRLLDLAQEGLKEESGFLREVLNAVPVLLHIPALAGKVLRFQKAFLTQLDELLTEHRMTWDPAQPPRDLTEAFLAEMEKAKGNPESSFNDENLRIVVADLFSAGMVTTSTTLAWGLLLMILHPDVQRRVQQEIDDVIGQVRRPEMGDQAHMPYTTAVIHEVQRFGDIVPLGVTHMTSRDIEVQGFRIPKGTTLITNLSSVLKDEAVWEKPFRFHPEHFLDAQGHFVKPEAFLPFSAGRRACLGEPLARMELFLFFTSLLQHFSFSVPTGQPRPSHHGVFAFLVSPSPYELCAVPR

[11] = target: Cytochrome P450 2C9 (Homo sapiens, UniProt P11712)
Chain of Cytochrome P450 2C9 (P11712 whole entry): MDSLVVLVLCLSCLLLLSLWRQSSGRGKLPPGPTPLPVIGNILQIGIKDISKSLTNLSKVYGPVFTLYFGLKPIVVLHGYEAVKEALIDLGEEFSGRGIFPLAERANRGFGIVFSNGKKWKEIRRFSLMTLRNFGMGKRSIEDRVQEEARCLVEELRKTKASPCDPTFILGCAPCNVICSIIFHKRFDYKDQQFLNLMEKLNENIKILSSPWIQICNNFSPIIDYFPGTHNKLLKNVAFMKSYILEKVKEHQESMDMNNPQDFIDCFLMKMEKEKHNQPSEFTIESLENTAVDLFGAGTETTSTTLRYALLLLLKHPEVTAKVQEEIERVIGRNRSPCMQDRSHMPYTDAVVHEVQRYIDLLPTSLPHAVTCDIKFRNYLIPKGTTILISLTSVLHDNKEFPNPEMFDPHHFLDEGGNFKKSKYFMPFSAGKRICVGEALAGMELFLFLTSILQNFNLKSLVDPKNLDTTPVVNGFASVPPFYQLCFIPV

[12] = target: Cytochrome P450 2C19 (Homo sapiens, UniProt P33261); experiment: Cytochrome panel assay with activity outcomes. Panel member name: p450-cyp2c19 Compounds with AC50 equal or less than 10 uM are considered active; type: functional; conditions: read-out: AC50
Chain of Cytochrome P450 2C19 (P33261 whole entry): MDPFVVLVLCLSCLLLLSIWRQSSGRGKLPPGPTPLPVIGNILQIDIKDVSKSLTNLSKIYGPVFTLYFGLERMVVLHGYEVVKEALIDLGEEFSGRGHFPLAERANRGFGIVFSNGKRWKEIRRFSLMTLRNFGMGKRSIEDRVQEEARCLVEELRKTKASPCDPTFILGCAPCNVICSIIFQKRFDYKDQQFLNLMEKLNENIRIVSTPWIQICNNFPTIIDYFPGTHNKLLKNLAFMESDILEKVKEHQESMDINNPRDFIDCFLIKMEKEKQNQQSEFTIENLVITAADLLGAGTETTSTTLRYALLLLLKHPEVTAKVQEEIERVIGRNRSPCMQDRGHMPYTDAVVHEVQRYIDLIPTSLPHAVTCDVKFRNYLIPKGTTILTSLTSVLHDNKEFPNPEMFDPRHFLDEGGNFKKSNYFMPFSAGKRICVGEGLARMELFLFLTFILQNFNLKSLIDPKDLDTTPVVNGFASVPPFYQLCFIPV

[13] = test system: HEK293; experiment: NOD2 signaling inhibitors in MDP-stimulated cells, cell-based, uHTS, luminescence (AID 2001); type: functional; conditions: Homo sapiens
[14] = loss of viability in HepG2 cells – cell-based, CellTiter-Glo, cherry-picked, cytotoxicity control for Shn3 inhibitor project, dose response (AID 624134); type: functional
[15] = test system: HEK293; experiment: inhibition of NOD1-driven NF-kB reporter – cell-based, luminescence, uHTS, primary screen (AID 1578); type: functional; conditions: Homo sapiens
[16] = non-specific 3'UTR reporter inhibition in Clone20-Shn3RL – cell-based, Renilla luciferase, cherry-picked, counter-screen for Shn3 inhibitor project, dose response (AID 624133); type: functional
[17] = test system: HEK293; experiment: cells; type: functional, cell-based; conditions: Homo sapiens
[18] = reduction of Shn3 3'UTR-driven luciferase in osteoblasts – cell-based, Clone20 osteoblasts, firefly luciferase, cherry-picked, dose response (AID 624132); type: functional;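 note: firefly luciferase luminescence from reporter carrying the Shn3 3'UTR in osteoblasts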
[19] = test system: HEK293; experiment: cells; type: functional, cell-based; conditions: Homo sapiens; remark: listed apart in the source
[20] = target: T4, Fatty acid synthase (Homo sapiens, UniProt P49327); experiment: inhibition of human FAS-TE enzyme activity – biochemical, endpoint fluorescence intensity, uHTS hits, dose response (AID 624327); type: functional;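 note: fluorescence from hydrolysis of an O-methyl fluorescein acyl ester substrate by the enzyme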
T4 sequence (P49327 whole entry): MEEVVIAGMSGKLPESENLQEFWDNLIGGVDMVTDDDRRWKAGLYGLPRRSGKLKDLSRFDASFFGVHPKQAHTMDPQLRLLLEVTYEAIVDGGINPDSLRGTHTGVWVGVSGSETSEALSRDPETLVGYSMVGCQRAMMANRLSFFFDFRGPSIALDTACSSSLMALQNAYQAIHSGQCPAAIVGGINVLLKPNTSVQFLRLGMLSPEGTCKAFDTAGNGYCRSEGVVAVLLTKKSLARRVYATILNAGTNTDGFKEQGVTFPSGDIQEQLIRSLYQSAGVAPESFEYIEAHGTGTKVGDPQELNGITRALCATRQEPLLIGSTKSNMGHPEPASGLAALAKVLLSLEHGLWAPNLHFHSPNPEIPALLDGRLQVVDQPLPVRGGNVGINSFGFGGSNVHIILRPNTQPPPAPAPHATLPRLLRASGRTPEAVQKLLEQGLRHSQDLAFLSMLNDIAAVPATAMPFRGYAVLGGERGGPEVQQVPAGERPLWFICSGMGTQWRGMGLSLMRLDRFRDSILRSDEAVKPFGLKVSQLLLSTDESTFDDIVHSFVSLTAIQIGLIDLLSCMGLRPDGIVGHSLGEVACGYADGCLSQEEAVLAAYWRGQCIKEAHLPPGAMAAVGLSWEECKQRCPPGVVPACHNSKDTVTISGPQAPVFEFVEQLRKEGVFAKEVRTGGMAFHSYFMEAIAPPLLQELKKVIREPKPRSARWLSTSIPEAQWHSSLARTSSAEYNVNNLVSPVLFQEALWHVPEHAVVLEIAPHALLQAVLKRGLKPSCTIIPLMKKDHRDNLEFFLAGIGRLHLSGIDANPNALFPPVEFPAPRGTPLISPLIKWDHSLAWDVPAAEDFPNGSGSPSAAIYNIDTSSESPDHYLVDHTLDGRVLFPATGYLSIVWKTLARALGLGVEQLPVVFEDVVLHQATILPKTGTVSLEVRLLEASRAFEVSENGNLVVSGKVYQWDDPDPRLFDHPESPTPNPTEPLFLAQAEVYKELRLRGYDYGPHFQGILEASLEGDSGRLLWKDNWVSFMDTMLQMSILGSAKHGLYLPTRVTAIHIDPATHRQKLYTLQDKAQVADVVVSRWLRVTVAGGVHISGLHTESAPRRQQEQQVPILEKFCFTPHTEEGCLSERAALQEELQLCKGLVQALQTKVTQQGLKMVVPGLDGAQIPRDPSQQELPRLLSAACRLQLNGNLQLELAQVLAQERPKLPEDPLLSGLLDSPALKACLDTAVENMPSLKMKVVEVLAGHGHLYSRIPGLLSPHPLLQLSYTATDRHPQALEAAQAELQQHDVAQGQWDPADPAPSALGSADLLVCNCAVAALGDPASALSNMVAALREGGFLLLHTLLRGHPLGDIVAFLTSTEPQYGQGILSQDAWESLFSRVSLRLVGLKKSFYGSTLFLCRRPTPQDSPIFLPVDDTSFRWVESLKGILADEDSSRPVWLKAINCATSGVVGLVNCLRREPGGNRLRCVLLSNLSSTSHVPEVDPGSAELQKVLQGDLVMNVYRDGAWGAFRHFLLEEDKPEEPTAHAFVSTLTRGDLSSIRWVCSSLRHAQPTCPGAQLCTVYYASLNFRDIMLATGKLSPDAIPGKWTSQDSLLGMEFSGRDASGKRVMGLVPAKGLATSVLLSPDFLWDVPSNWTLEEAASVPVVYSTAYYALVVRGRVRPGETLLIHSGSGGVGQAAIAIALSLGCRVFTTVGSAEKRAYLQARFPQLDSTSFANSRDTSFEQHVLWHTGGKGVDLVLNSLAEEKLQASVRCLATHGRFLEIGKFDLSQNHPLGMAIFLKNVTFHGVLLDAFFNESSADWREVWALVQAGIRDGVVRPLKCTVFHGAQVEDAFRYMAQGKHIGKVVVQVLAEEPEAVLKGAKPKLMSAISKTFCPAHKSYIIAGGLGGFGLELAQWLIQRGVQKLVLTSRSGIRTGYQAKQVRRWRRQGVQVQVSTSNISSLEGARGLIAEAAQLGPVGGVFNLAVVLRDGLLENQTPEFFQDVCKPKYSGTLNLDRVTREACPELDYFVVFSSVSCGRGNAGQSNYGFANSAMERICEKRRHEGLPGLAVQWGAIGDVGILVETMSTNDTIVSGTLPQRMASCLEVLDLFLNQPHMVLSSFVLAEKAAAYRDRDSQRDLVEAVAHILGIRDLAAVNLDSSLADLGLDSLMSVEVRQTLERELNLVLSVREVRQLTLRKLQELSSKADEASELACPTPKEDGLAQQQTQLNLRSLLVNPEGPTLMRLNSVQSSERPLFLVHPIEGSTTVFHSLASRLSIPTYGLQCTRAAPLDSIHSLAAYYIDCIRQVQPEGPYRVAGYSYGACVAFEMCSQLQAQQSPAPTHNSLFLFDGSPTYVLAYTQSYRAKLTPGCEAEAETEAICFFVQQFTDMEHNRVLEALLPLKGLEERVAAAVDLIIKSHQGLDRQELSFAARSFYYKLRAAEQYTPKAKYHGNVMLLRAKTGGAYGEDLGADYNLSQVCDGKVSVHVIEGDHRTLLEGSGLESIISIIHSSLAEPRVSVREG

[21] = HEK-293T viability loss after treatment – luminescence, T-cell screen hits, cytotoxicity control for TCR NF-kB inhibitor project, dose response (AID 489026); type: functional, cell-based;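 note: cells exposed to compound about 14 hours before the viability readout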
[22] = target: T4, Fatty acid synthase; experiment: inhibition of human FAS-TE enzyme activity – biochemical, kinetic fluorescence intensity, dose response (AID 624326); type: functional;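 note: rate of fluorescence rise from hydrolysis of a fluorogenic O-methyl fluorescein ester substrate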
[23] = target: T5, Streptokinase A (Streptococcus pyogenes serotype M1, UniProt P10520); experiment: viability-normalized secreted streptokinase activity reduction – plasminogen activation absorbance, OD405, dose response (AID 1914); type: functional, Streptococcus pyogenes M1 GAS;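 note: secreted streptokinase activity via plasminogen activation per viability signal from cell pellet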
T5 sequence (P10520 whole entry): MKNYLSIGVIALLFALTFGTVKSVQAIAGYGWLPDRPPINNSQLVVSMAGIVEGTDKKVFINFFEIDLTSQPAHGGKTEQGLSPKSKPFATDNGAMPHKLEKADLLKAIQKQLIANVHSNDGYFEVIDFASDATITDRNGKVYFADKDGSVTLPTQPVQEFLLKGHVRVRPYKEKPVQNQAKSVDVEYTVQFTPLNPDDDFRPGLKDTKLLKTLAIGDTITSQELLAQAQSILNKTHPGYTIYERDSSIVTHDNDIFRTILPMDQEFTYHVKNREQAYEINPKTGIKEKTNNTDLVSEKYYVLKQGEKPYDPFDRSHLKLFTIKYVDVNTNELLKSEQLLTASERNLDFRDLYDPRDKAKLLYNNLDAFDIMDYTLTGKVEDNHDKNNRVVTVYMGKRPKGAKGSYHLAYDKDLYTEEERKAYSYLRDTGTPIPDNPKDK

[24] = A Cell Based Secondary Assay To Explore Cytotoxicity of Compounds that Sensitize Mycobacterium Tuberculosis to Beta-Lactam Antibiotics.; type: functional
[25] = test system: Streptococcus; experiment: GAS UMAA2166 growth inhibition – luminescence, BacTiterGlo, counter-screen for streptokinase expression inhibitor project, dose response (AID 1915); type: functional, organism-based;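 note: potency for reduction of bacterial viability or growth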
[26] = test system: Streptococcus sp. 'group A'; experiment: Streptococcus pyogenes SK(-)GAS viability under kanamycin – luminescence, BacTiterGlo, confirmation, counter-screen for streptokinase expression inhibitor project, dose response (AID 1900); type: functional, organism-based
[27] = Luminescence Cell-Based Dose Retest to Confirm Inhibitors of Cancer Stem Cells. [Related pubchem assays (depositor defined):AID2717, AID2721]; type: functional; conditions: Homo sapiens
[28] = target: T6, DNA repair protein RAD52 homolog (Homo sapiens, UniProt P43351); type: functional, biochemical
T6 sequence (P43351 whole entry): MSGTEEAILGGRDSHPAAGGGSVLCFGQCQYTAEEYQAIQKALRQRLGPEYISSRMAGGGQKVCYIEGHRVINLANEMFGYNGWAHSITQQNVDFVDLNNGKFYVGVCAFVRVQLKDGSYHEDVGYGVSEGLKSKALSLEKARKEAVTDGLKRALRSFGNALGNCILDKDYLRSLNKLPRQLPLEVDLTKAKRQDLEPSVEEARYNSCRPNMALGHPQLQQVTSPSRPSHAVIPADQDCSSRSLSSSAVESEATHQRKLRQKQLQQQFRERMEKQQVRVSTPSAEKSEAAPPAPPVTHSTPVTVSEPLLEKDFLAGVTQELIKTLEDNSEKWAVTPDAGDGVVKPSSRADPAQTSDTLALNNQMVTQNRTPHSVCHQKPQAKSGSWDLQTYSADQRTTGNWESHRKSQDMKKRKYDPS

[29] = THP-1 cell cytotoxicity, dose response, cytotoxicity control for non-replicating M. tuberculosis project (AID 489025); type: functional
[30] = cells; type: functional

c1ccc(CCNc2ncnc3ccccc23)cc1
IC50 [1]: > 80 µM (inactive)
AC50 [2]: 1.05 µM (active)

COc1ccccc1N1CCN(C(c2cccs2)c2nnnn2C2CCCC2)CC1 (stereo not drawn)
EC50 [3]: 6.33 µM (active)

CCOC(=O)c1cnc2c(C(F)(F)F)cccc2c1N1CCOCC1
IC50 [4]: 13.5 µM (active)

O=S(=O)(c1ccc(F)cc1)c1nc(-c2ccccc2F)oc1N1CCCCC1
EC50 [5]: > 30 µM (not active)
EC50 [6]: 1.87 µM (active)
IC50 [7]: 12.3 µM (active)
IC50 [8]: 19.1 µM (active)

CC1CCN(C(=O)CCCOc2cc(=O)n(C)c3ccccc23)CC1
IC50 [1]: > 80 µM (inactive)

O=S(=O)(Nc1nc2cc3c(cc2nc1Cl)OCCO3)c1ccccc1
IC50 [9]: 66.8 µM (active)

COc1ccc(C(C(=O)NC2CCCCC2)N(C(=O)c2sc(C)nc2C)c2ccc(C(C)=O)cc2)cc1 (stereo not drawn)
AC50 [10]: inconclusive

CCN1C(=O)[C@H]2[C@@H]3[C@H](O)C=CC(=O)[C@H]3CC[C@H]2C1=O
AC50 [10]: inconclusive

COc1cc(C(=O)NC(=S)Nc2ccc3oc(=O)ccc3c2)cc(OC)c1OC
AC50 [10]: inconclusive

O=C(NNS(=O)(=O)c1ccc(Cl)cc1)c1cc(-c2ccccc2)nc2ccccc12
IC50 [9]: 36.5 µM (active)

CN1C(=O)CC(c2ccco2)Sc2ccccc21 (stereo not drawn)
IC50 [1]: > 80 µM (inactive)

O=C(O)C1CCN(c2c([N+](=O)[O-])cc(C(F)(F)F)cc2[N+](=O)[O-])CC1
AC50 [11]: 35.5 µM (inconclusive)
AC50 [10]: inconclusive
AC50 [12]: 14.1 µM (inconclusive)

Cc1ccccc1N(CC(=O)NC1CCCC1)C(=O)C[S+]([O-])CC(=O)Nc1ccc2c(c1)OCO2 (stereo not drawn)
IC50 [9]: 63.9 µM (active)

Cn1c(SCC(=O)N2CCCc3ccccc32)nc2ccccc2c1=O
IC50 [13]: 6.57 µM (active)
AC50 [14]: 43.6 µM (active)
EC50 [15]: 4.77 µM (active)
AC50 [16]: 4.04 µM (active)
IC50 [17]: 5.85 µM (active)
AC50 [18]: 3.46 µM (active)
IC50 [19]: 13.5 µM (active)

O=C(NCc1ccc2c(c1)OCO2)c1cc([N+](=O)[O-])ccc1N1CCOCC1
IC50 [20]: 11.5 µM (active)
IC50 [21]: > 80 µM (inactive)
IC50 [22]: 8.35 µM (active)

CC(C)c1ccc(NC2CCCN(C(=O)c3cnn(C(C)C)c3)C2)cc1 (stereo not drawn)
IC50 [7]: 6.21 µM (active)
IC50 [8]: 9.04 µM (active)

COCCn1c(C)cc2c(c1=O)C(c1ccccc1F)C(C#N)=C(N)O2 (stereo not drawn)
AC50 [11]: 17.8 µM (inconclusive)
AC50 [10]: inconclusive

CC12CCC(C/C1=N\NC1=NC(=O)/C(=C\c3cccc(Br)c3)S1)C2(C)C (stereo not drawn)
EC50 [23]: > 150 µM (not active)
CC50 [24]: > 40 µM (active)
EC50 [25]: 2.89 µM (active)
EC50 [26]: 0.343 µM (active)
AC50 [27]: 1.95 µM (active)

N=C(N)Nc1nc(-c2ccccc2)c2ccccc2n1
EC50 [5]: > 60 µM (not active)
AC50 [28]: 16.6 µM (active)
CC50 [29]: 21.2 µM (active)
EC50 [6]: 0.142 µM (active)
IC50 [30]: 34.5 µM (active)
